Reference: patent US6962920B2, “Pyrimidine derivatives and methods of making and using these derivatives” (Duquesne University of the Holy Ghost, priority 1992, dated 2005)

How the values were obtained:
CCRF-CEM cells = experiment: Growth inhibition of CCRF-CEM human leukemia cells, continuous exposure; format: cell-based; settings: Table 8, continuous (0-120 hours) exposure, read-out: Growth inhibition EC50, CCRF-CEM
FaDu = experiment: Growth inhibition of FaDu human squamous carcinoma cell line; format: cell-based; settings: Homo sapiens, FaDu; Table 9; continuous (120 hours) exposure; read-out: Growth inhibition EC50, FaDu
[1] = molecular target: T1, CCRF-CEM human leukemia cell folylpolyglutamate synthetase (Homo sapiens, UniProt Q05932); experiment: Substrate activity for CCRF-CEM folylpolyglutamate synthetase; format: biochemical; settings: Table 10
T1 construct: substrates for human leukemia cell CCRF-CEM folylpolyglutamate synthetase; endogenous in cells; host or cells: CCRF-CEM human leukemia cells
T1 sequence (Q05932 43-587): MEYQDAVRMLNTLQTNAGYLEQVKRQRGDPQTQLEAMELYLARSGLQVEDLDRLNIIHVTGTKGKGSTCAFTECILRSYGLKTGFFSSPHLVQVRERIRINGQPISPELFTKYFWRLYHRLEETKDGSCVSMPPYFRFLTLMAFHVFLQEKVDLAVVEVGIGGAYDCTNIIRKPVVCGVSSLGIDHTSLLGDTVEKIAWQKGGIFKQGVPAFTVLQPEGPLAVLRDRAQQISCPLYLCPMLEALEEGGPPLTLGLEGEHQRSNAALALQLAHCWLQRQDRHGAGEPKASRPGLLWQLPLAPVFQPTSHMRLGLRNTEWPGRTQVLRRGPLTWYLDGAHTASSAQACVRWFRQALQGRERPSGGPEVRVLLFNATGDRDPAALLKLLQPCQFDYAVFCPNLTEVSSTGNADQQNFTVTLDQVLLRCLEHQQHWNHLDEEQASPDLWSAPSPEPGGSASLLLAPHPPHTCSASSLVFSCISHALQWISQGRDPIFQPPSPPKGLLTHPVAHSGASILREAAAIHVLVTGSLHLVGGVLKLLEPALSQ
Experimental: Aminopterin is a classical 2,4-diamino antifolate substrate.
Compounds 33 and 34 were also evaluated for their substrate activity in CCRF-CEM human leukemia folylpolyglutamate synthetase; the compounds were compared against aminopterin.

HCC-2998 = experiment: NCI in vitro anti-cancer activity, Colon Cancer; format: cell-based; settings: Homo sapiens; HCC-2998, Colon Cancer

Nc1nc(N)c2c(CNc3ccc(C(=O)N[C@@H](CCC(=O)O)C(=O)O)cc3)c[nH]c2n1 [Compound 9]
EC50 (CCRF-CEM cells): 12.8 ± 2.2 nM
EC50 (FaDu): 22 ± 4 nM
Vmax(rel) ([1]; relative to aminopterin): 0.72 ± 0.07
Km ([1]; substrate for FPGS): < 1 µM
GI50 (HCC-2998): < 10 nM
